# According to US20140058103A1, “Inhibitors of PI3K-Delta and Methods of Their Use and Manufacture” (Exelixis, Inc., priority 2010, published 2014):
# Target: PI3K delta (Homo sapiens, UniProt O00329)
# Test: Luciferase-coupled chemiluminescence kinase assay (ATP consumption, KinaseGlo)
# Format: biochemical
# How it was run: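 Compound, kinase and ATP (≤ KM) reacted 2 h at ambient temperature, then remaining ATP quantified with luciferase-luciferin (KinaseGlo) luminescence as percent consumed.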
# Chain of PI3K delta (O00329 whole entry): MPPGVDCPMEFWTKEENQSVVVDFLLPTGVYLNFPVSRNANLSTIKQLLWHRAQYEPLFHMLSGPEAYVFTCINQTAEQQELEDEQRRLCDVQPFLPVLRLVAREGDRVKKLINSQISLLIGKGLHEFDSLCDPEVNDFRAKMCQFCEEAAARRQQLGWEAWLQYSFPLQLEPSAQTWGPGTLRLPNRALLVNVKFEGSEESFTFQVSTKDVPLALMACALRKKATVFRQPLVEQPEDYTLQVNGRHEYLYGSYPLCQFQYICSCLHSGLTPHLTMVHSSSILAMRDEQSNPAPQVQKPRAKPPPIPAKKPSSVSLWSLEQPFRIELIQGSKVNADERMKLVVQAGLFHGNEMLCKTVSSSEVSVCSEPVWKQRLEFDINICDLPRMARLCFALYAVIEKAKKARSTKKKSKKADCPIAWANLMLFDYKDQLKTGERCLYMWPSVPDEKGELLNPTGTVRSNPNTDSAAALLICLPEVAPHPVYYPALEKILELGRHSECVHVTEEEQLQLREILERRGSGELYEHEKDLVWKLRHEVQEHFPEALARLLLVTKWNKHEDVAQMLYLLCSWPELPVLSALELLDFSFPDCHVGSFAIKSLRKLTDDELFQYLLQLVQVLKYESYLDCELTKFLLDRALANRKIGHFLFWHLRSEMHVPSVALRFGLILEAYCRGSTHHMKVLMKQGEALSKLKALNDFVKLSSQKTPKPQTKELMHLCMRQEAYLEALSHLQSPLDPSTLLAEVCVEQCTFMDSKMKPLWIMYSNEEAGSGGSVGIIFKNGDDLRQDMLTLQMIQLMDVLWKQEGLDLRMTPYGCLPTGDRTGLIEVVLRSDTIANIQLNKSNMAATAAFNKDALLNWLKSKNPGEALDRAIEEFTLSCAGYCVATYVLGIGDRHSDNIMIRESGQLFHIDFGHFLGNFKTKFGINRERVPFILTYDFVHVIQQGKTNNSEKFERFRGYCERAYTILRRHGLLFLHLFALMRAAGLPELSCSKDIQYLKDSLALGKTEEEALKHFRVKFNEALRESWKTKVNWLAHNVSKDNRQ
# Chain of PI3K delta (P27986 whole entry partner): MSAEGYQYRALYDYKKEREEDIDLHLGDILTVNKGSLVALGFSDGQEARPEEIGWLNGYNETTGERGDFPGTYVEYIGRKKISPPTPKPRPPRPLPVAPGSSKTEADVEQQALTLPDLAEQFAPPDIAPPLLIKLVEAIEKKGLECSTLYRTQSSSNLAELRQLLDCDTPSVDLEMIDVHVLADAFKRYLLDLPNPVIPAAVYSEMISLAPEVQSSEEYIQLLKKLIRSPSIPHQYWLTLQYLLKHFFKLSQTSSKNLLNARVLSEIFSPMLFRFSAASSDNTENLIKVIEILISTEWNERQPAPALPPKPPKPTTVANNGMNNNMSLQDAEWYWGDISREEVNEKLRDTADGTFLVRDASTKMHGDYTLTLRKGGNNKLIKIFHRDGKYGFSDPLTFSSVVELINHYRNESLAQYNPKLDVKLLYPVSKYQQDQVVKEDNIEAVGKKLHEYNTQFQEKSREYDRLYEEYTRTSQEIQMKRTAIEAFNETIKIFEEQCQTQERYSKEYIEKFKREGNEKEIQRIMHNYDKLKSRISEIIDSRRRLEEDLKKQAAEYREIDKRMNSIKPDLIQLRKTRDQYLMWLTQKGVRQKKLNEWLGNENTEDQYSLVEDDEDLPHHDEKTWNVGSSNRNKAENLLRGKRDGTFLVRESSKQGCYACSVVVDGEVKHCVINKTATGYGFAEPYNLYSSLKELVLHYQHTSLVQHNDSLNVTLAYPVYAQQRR
row,Structure (SMILES),IC50 [nM]
1,"Cn1cc(-c2nc3c(N4CCC(CN)(c5ccccc5)CC4)ncnc3n2C)cn1 [Compound 1, 1-{1-[9-methyl-8-(1-methyl-1H-pyrazol-4-yl)-9H-purin-6-yl]-4-phenylpiperidin-4-yl}methanamine]",500 to 1500
2,"Cn1c(C(=O)N2CCC(O)C2)nc2c(N3CCC(n4c(=O)[nH]c5ccccc54)CC3)ncnc21 (stereo not drawn) [Compound 73, 1-(1-[8-[(3-hydroxypyrrolidin-1-yl)carbonyl]-9-methyl-9H-purin-6-yl]piperidin-4-yl)-1,3-dihydro-2H-benzimidazol-2-one]",500 to 1500
3,"CCn1c(C(=O)NC2COC2)nc2c(N3CCC4(CC3)C(=O)Nc3ccccc34)ncnc21 [Compound 226, 9-ethyl-N-oxetan-3-yl-6-(2-oxo-1,2-dihydro-1′H-spiro[indole-3,4′-piperidin]-1′-yl)-9H-purine-8-carboxamide]",< 50
4,"CCn1c(-c2ccc(C(F)(F)F)nc2)nc2c(N3CCC(n4c(=O)[nH]c5ncccc54)CC3)ncnc21 [Compound 326, 1-(1-{9-ethyl-8-[6-(trifluoromethyl)pyridin-3-yl]-9H-purin-6-yl}piperidin-4-yl)-1,3-dihydro-2H-imidazo[4,5-b]pyridin-2-one]",< 50
5,"CCn1c(C(=O)NCC2CCOCC2)nc2c(N3CCC(n4c(=O)[nH]c5ccccc54)CC3)ncnc21 [Compound 156, 9-ethyl-6-[4-(2-oxo-2,3-dihydro-1H-benzimidazol-1-yl)piperidin-1-yl]-N-(tetrahydro-2H-pyran-4-ylmethyl)-9H-purine-8-carboxamide]",< 50
6,"CCn1c(C(=O)NCCCCO)nc2c(N3CCC(n4c(=O)[nH]c5ccccc54)CC3)ncnc21 [Compound 195, 9-ethyl-N-(4-hydroxybutyl)-6-[4-(2-oxo-2,3-dihydro-1H-benzimidazol-1-yl)piperidin-1-yl]-9H-purine-8-carboxamide]",< 50
7,"C#CCNC(=O)c1nc2c(N3CCC(n4c(=O)[nH]c5ccccc54)CC3)ncnc2n1C [Compound 139, 9-methyl-6-[4-(2-oxo-2,3-dihydro-1H-benzimidazol-1-yl)piperidin-1-yl]-N-prop-2-yn-1-yl-9H-purine-8-carboxamide]",50 to 250
8,"Cn1c(C(=O)N2CCCC2)nc2c(N3CCC4(CC3)C(=O)Nc3ccccc34)ncnc21 [Compound 35, 1′-[9-methyl-8-(pyrrolidin-1-ylcarbonyl)-9H-purin-6-yl]spiro[indole-3,4′-piperidin]-2(1H)-one]",500 to 1500
9,"COC(=O)C1(c2ccccc2)CCN(c2ncnc3c2nc(-c2cnn(C)c2)n3C)CC1 [Compound 274, methyl 1-[9-methyl-8-(1-methyl-1H-pyrazol-4-yl)-9H-purin-6-yl]-4-phenylpiperidine-4-carboxylate]",500 to 1500
10,"CC(C)CNC(=O)c1nc2c(N3CCC(n4c(=O)[nH]c5ccccc54)CC3)ncnc2n1C [Compound 67, 9-methyl-N-(2-methylpropyl)-6-[4-(2-oxo-2,3-dihydro-1H-benzimidazol-1-yl)piperidin-1-yl]-9H-purine-8-carboxamide]",< 50
11,"Cn1c(C(=O)N[C@H]2CC[C@H](O)CC2)nc2c(N3CCC(n4c(=O)[nH]c5ncccc54)CC3)ncnc21 [Compound 329, N-(trans-4-hydroxycyclohexyl)-9-methyl-6-[4-(2-oxo-2,3-dihydro-1H-imidazo[4,5-b]pyridin-1-yl)piperidin-1-yl]-9H-purine-8-carboxamide]",< 50
12,"Cn1c(C(=O)N[C@H]2CC[C@H](O)CC2)nc2c(N3CCC(n4c(=O)[nH]c5ccccc54)CC3)ncnc21 [Compound 111, N-(trans-4-hydroxycyclohexyl)-9-methyl-6-[4-(2-oxo-2,3-dihydro-1H-benzimidazol-1-yl)piperidin-1-yl]-9H-purine-8-carboxamide]",< 50
13,"Cc1[nH]ncc1-c1nc2c(N3CCC(n4c(=O)[nH]c5ncccc54)CC3)ncnc2n1C [Compound 394, 1-{1-[9-methyl-8-(5-methyl-1H-pyrazol-4-yl)-9H-purin-6-yl]piperidin-4-yl}-1,3-dihydro-2H-imidazo[4,5-b]pyridin-2-one]",< 50
14,"Cc1c(-c2nc3c(N4CCC(n5c(=O)[nH]c6ccccc65)CC4)ncnc3n2C)cnn1C [Compound 241, 1-{1-[8-(1,5-dimethyl-1H-pyrazol-4-yl)-9-methyl-9H-purin-6-yl]piperidin-4-yl}-1,3-dihydro-2H-benzimidazol-2-one]",< 50
15,"Cn1c(C(=O)NCc2cccs2)nc2c(N3CCC(n4c(=O)[nH]c5ccccc54)CC3)ncnc21 [Compound 49, 9-methyl-6-[4-(2-oxo-2,3-dihydro-1H-benzimidazol-1-yl)piperidin-1-yl]-N-(2-thienylmethyl)-9H-purine-8-carboxamide]",50 to 250
16,"Cn1cncc1-c1nc2c(N3CCC(n4c(=O)[nH]c5ccccc54)CC3)ncnc2n1C [Compound 288, 1-{1-[9-methyl-8-(1-methyl-1H-imidazol-5-yl)-9H-purin-6-yl]piperidin-4-yl}-1,3-dihydro-2H-benzimidazol-2-one]",< 50
17,"Cn1c(-c2cccnn2)nc2c(N3CCC(n4c(=O)[nH]c5ccccc54)CC3)ncnc21 [Compound 297, 1-[1-(9-methyl-8-pyridazin-3-yl-9H-purin-6-yl)piperidin-4-yl]-1,3-dihydro-2H-benzimidazol-2-one]",50 to 250

row,Structure (SMILES),IC50 [nM]
1,"Cn1c(C(=O)NC2CCC(F)(F)CC2)nc2c(N3CCC(n4c(=O)[nH]c5ccccc54)CC3)ncnc21 [Compound 107, N-(4,4-difluorocyclohexyl)-9-methyl-6-[4-(2-oxo-2,3-dihydro-1H-benzimidazol-1-yl)piperidin-1-yl]-9H-purine-8-carboxamide]",50 to 250
2,"Cn1c(C(=O)NCCCO)nc2c(N3CCC(n4c(=O)[nH]c5ccccc54)CC3)ncnc21 [Compound 48, N-(3-hydroxypropyl)-9-methyl-6-[4-(2-oxo-2,3-dihydro-1H-benzimidazol-1-yl)piperidin-1-yl]-9H-purine-8-carboxamide]",50 to 250
3,"CC(C)Cn1cc(-c2nc3c(N4CCC(n5c(=O)[nH]c6ccccc65)CC4)ncnc3n2C)cn1 [Compound 148, 1-(1-{9-methyl-8-[1-(2-methylpropyl)-1H-pyrazol-4-yl]-9H-purin-6-yl}piperidin-4-yl)-1,3-dihydro-2H-benzimidazol-2-one]",< 50
4,"CC(C)c1nnc(-c2nc3c(N4CCC(n5c(=O)[nH]c6ccccc65)CC4)ncnc3n2C)o1 [Compound 122, 1-(1-{9-methyl-8-[5-(1-methylethyl)-1,3,4-oxadiazol-2-yl]-9H-purin-6-yl}piperidin-4-yl)-1,3-dihydro-2H-benzimidazol-2-one]",< 50
5,"Cn1cc(-c2nc3c(N4CCN(S(=O)(=O)c5ccc(F)cc5F)CC4)ncnc3n2C)cn1 [Compound 383, 6-{4-[(2,4-difluorophenyl)sulfonyl]piperazin-1-yl)-9-methyl-8-(1-methyl-1H-pyrazol-4-yl)-9H-purine]",500 to 1500
6,"CCCc1nnc(-c2nc3c(N4CCC(n5c(=O)[nH]c6ccccc65)CC4)ncnc3n2C)o1 [Compound 123, 1-{1-[9-methyl-8-(5-propyl-1,3,4-oxadiazol-2-yl)-9H-purin-6-yl]piperidin-4-yl}-1,3-dihydro-2H-benzimidazol-2-one]",< 50
7,"CCn1c(C(=O)NCCC(C)C)nc2c(N3CCC4(CC3)C(=O)Nc3ccccc34)ncnc21 [Compound 225, 9-ethyl-N-(3-methylbutyl)-6-(2-oxo-1,2-dihydro-1′H-spiro[indole-3,4′-piperidin]-1′-yl)-9H-purine-8-carboxamide]",50 to 250
8,"CCn1c(C(=O)NCC(F)(F)F)nc2c(N3CCC4(CC3)C(=O)Nc3ccccc34)ncnc21 [Compound 160, 9-ethyl-6-(2-oxo-1,2-dihydro-1′H-spiro[indole-3,4′-piperidin]-1′-yl)-N-(2,2,2-trifluoroethyl)-9H-purine-8-carboxamide]",< 50
9,"Cn1c(-c2cccnc2)nc2c(N3CCC(n4c(=O)[nH]c5ccccc54)CC3)ncnc21 [Compound 268, 1-[1-(9-Methyl-8-pyridin-3-yl-9H-purin-6-yl)piperidin-4-yl]-1,3-dihydro-2H-benzimidazol-2-one]",< 50
10,"Cn1c(-c2nnc(C3CC3)o2)nc2c(N3CCC(n4c(=O)[nH]c5ccccc54)CC3)ncnc21 [Compound 125, 1-{1-[8-(5-cyclopropyl-1,3,4-oxadiazol-2-yl)-9-methyl-9H-purin-6-yl]piperidin-4-yl}-1,3-dihydro-2H-benzimidazol-2-one]",< 50
11,"Cn1c(C(=O)NCC2CC2)nc2c(N3CCC4(CC3)OC(=O)c3ccccc34)ncnc21 [Compound 138, N-(cyclopropylmethyl)-9-methyl-6-(3-oxo-1′H,3H-spiro[2-benzofuran-1,4′-piperidin]-1′-yl)-9H-purine-8-carboxamide]",500 to 1500
12,"CC(C)N(C)C(=O)c1nc2c(N3CCC4(CC3)C(=O)Nc3ccccc34)ncnc2n1C [Compound 38, N,9-dimethyl-N-(1-methylethyl)-6-(2-oxo-1,2-dihydro-1′H-spiro[indole-3,4′-piperidin]-1′-yl)-9H-purine-8-carboxamide]",500 to 1500
13,"Cn1c(C(=O)N2CC[C@@H](F)C2)nc2c(N3CCC4(CC3)C(=O)Nc3ccccc34)ncnc21 [Compound 110, 1′-(8-{[(3R)-3-fluoropyrrolidin-1-yl]carbonyl}-9-methyl-9H-purin-6-yl)spiro[indole-3,4′-piperidin]-2(1H)-one]",50 to 250
14,"Cn1c(N2CCCC2)nc2c(N3CCC(n4c(=O)[nH]c5ccccc54)CC3)ncnc21 [Compound 126, 1-[1-(9-methyl-8-pyrrolidin-1-yl-9H-purin-6-yl)piperidin-4-yl]-1,3-dihydro-2H-benzimidazol-2-one]",500 to 1500
15,Cn1cc(-c2nc3c(N4CCN(S(=O)(=O)c5ccccc5C(F)(F)F)CC4)ncnc3n2C)cn1 [Compound 378],50 to 250
16,"Cn1c(-c2cnn(CCO)c2)nc2c(N3CCC(n4c(=O)[nH]c5ccccc54)CC3)ncnc21 [Compound 178, 1-{1-(8-[1-(2-hydroxyethyl)-1H-pyrazol-4-yl]-9-methyl-9H-purin-6-yl}piperidin-4-yl)-1,3-dihydro-2H-benzimidazol-2-one]",50 to 250
